Measured values as given in article PMC5218480 (PLoS ONE, 2017).

Tested on: MV-4-11 cells
Test: Gene expression microarray analysis (Affymetrix PrimeView) and GSEA
Assay type: cell-based, human
Parameters: RFU PODN (11730768_x_at) / Fold change /veh PODN (11730768_x_at) / RFU LINC00158 (11744669_a_at) / Fold change /veh LINC00158 (11744669_a_at) / RFU DUSP10 (11751237_a_at) / Fold change /veh DUSP10 (11751237_a_at) / RFU ID3 (11757404_x_at) / Fold change /veh ID3 (11757404_x_at) / RFU PLEKHG5 (11737974_s_at) / Fold change /veh PLEKHG5 (11737974_s_at) / RFU LRRC4B (11730491_at) / Fold change /veh LRRC4B (11730491_at) / RFU GIMAP4 (11747438_a_at) / Fold change /veh GIMAP4 (11747438_a_at) / RFU KRT8 (11758183_x_at) / Fold change /veh KRT8 (11758183_x_at) / RFU CNN1 (11734310_a_at) / Fold change /veh CNN1 (11734310_a_at) / RFU VPS37D (11726825_at) / Fold change /veh VPS37D (11726825_at) / RFU C10orf10 (11716522_x_at) / Fold change /veh C10orf10 (11716522_x_at) / RFU KIR2DL2 /// KIR2DL4 /// KIR2DL5A /// KIR2DL5B /// KIR2DS1 /// KIR2DS2 /// KIR2DS3 /// KIR2DS4 /// KIR3DL3 /// KIR3DL3 /// KIR3DS1 (11738374_at) / Fold change /veh KIR2DL2 /// KIR2DL4 /// KIR2DL5A /// KIR2DL5B /// KIR2DS1 /// KIR2DS2 /// KIR2DS3 /// KIR2DS4 /// KIR3DL3 /// KIR3DL3 /// KIR3DS1 (11738374_at) / RFU C1QL1 (11718748_at) / Fold change /veh C1QL1 (11718748_at) / RFU TMPRSS4 (11747572_a_at) / Fold change /veh TMPRSS4 (11747572_a_at) / RFU HAMP (11756126_x_at) / Fold change /veh HAMP (11756126_x_at) / RFU RNFT2 (11725882_a_at) / Fold change /veh RNFT2 (11725882_a_at) / RFU NR4A2 (11747474_a_at) / Fold change /veh NR4A2 (11747474_a_at) / RFU ABCC12 (11746883_a_at) / Fold change /veh ABCC12 (11746883_a_at) / RFU TMEM136 (11760407_x_at) / Fold change /veh TMEM136 (11760407_x_at) / RFU CLDN22 /// WWC2 (11732394_at) / Fold change /veh CLDN22 /// WWC2 (11732394_at) / RFU HLA-DPB1 (11760878_x_at) / Fold change /veh HLA-DPB1 (11760878_x_at) / RFU SPINT1 (11716480_a_at) / Fold change /veh SPINT1 (11716480_a_at) / RFU GAP43 (11754022_s_at) / Fold change /veh GAP43 (11754022_s_at) / RFU A4GNT (11735810_at) / Fold change /veh A4GNT (11735810_at) / RFU PRB3 (11715151_x_at) / Fold change /veh PRB3 (11715151_x_at) / RFU TUBB4B (11761932_at) / Fold change /veh TUBB4B (11761932_at) / RFU CAPN14 (11732068_a_at) / Fold change /veh CAPN14 (11732068_a_at) / RFU TMCC2 (11721928_a_at) / Fold change /veh TMCC2 (11721928_a_at) / RFU IRGQ (11745062_a_at) / Fold change /veh IRGQ (11745062_a_at) / RFU FAM174B (11720279_a_at) / Fold change /veh FAM174B (11720279_a_at) / RFU TMPRSS4 (11748680_a_at) / Fold change /veh TMPRSS4 (11748680_a_at) / RFU FAM212B (11763350_a_at) / Fold change /veh FAM212B (11763350_a_at) / RFU PLEKHG5 (11743358_a_at) / Fold change /veh PLEKHG5 (11743358_a_at) / RFU ZSCAN30 (11745921_a_at) / Fold change /veh ZSCAN30 (11745921_a_at) / RFU CMKLR1 (11741424_a_at) / Fold change /veh CMKLR1 (11741424_a_at) / RFU LOC101060620 /// MAPK8IP1 (11723275_at) / Fold change /veh LOC101060620 /// MAPK8IP1 (11723275_at) / RFU SPTSSB (11747773_x_at) / Fold change /veh SPTSSB (11747773_x_at) / RFU PRSS12 (11739890_at) / Fold change /veh PRSS12 (11739890_at) / RFU BIN1 (11741810_x_at) / Fold change /veh BIN1 (11741810_x_at) / RFU WNT11 (11732464_a_at) / Fold change /veh WNT11 (11732464_a_at) / RFU C10orf10 (11716521_a_at) / Fold change /veh C10orf10 (11716521_a_at) / RFU C5orf56 (11738089_at) / Fold change /veh C5orf56 (11738089_at) / RFU CYB561 (11721691_x_at) / Fold change /veh CYB561 (11721691_x_at) / RFU ANKRD19P (11752326_a_at) / Fold change /veh ANKRD19P (11752326_a_at) / RFU OR2T12 /// OR2T33 /// OR2T8 (11738714_s_at) / Fold change /veh OR2T12 /// OR2T33 /// OR2T8 (11738714_s_at) / RFU VCAN (11748164_a_at) / Fold change /veh VCAN (11748164_a_at) / RFU JSRP1 (11732532_at) / Fold change /veh JSRP1 (11732532_at) / RFU KRTAP10-11 (11738290_x_at) / Fold change /veh KRTAP10-11 (11738290_x_at) / RFU MYO3A (11730013_a_at) / Fold change /veh MYO3A (11730013_a_at) / RFU EBF3 (11725865_a_at) / Fold change /veh EBF3 (11725865_a_at) / RFU CAMK2N1 (11719241_x_at) / Fold change /veh CAMK2N1 (11719241_x_at) / RFU C5orf56 (11738088_a_at) / Fold change /veh C5orf56 (11738088_a_at) / RFU OLFML3 (11715873_a_at) / Fold change /veh OLFML3 (11715873_a_at) / RFU LOC100653217 /// NTM (11731650_a_at) / Fold change /veh LOC100653217 /// NTM (11731650_a_at) / RFU MAPK11 (11762145_a_at) / Fold change /veh MAPK11 (11762145_a_at) / RFU FIZ1 (11724087_x_at) / Fold change /veh FIZ1 (11724087_x_at) / RFU OASL (11726364_x_at) / Fold change /veh OASL (11726364_x_at) / RFU SOX15 (11748057_x_at) / Fold change /veh SOX15 (11748057_x_at) / RFU CD79A (11719716_a_at) / Fold change /veh CD79A (11719716_a_at) / RFU HIST1H1D (11736915_at) / Fold change /veh HIST1H1D (11736915_at) / RFU CASKIN2 (11723855_a_at) / Fold change /veh CASKIN2 (11723855_a_at) / RFU LOC730098 (11760151_x_at) / Fold change /veh LOC730098 (11760151_x_at) / RFU OR4N2 (11742367_at) / Fold change /veh OR4N2 (11742367_at) / RFU PRRT2 (11749266_a_at) / Fold change /veh PRRT2 (11749266_a_at) / RFU SNX32 (11753110_a_at) / Fold change /veh SNX32 (11753110_a_at) / RFU CDHR5 (11726645_a_at) / Fold change /veh CDHR5 (11726645_a_at) / RFU RCAN1 (11760418_a_at) / Fold change /veh RCAN1 (11760418_a_at) / RFU FAM167A (11723789_a_at) / Fold change /veh FAM167A (11723789_a_at) / RFU FAM26E (11764081_at) / Fold change /veh FAM26E (11764081_at) / RFU ISYNA1 (11749810_s_at) / Fold change /veh ISYNA1 (11749810_s_at) / RFU ACY1 (11761880_at) / Fold change /veh ACY1 (11761880_at) / RFU 11764098_at / Fold change /veh 11764098_at / RFU SAMD14 (11745864_x_at) / Fold change /veh SAMD14 (11745864_x_at) / RFU NPB (11741838_a_at) / Fold change /veh NPB (11741838_a_at) / RFU TMPRSS6 (11731388_a_at) / Fold change /veh TMPRSS6 (11731388_a_at) / RFU KRTAP10-2 (11738614_at) / Fold change /veh KRTAP10-2 (11738614_at) / RFU ARHGAP8 /// PRR5-ARHGAP8 (11727945_x_at) / Fold change /veh ARHGAP8 /// PRR5-ARHGAP8 (11727945_x_at) / RFU KRTAP5-7 /// NADSYN1 (11734609_at) / Fold change /veh KRTAP5-7 /// NADSYN1 (11734609_at) / RFU RASL12 (11751679_a_at) / Fold change /veh RASL12 (11751679_a_at) / RFU CDKN2B (11736163_a_at) / Fold change /veh CDKN2B (11736163_a_at) / RFU PRF1 (11729649_at) / Fold change /veh PRF1 (11729649_at) / RFU, ZNF638 /// ZNF638-IT1 / Fold change vs veh, ZNF638 /// ZNF638-IT1 / RFU, PANK3 / Fold change vs veh, PANK3 / RFU, SH3YL1 / Fold change vs veh, SH3YL1 / RFU, ZEB2 / Fold change vs veh, ZEB2 / RFU, NRIP1 / Fold change vs veh, NRIP1 / RFU, PTTG1IP / Fold change vs veh, PTTG1IP / RFU, CAPN2 / Fold change vs veh, CAPN2 / RFU, MED14 / Fold change vs veh, MED14 / RFU, SNORA58 / Fold change vs veh, SNORA58 / RFU, C1orf63 / Fold change vs veh, C1orf63 / RFU, LRRFIP1 / Fold change vs veh, LRRFIP1 / RFU, NDUFAF7 / Fold change vs veh, NDUFAF7 / RFU, SLC12A2 / Fold change vs veh, SLC12A2 / RFU, IBTK / Fold change vs veh, IBTK / RFU, ESF1 / Fold change vs veh, ESF1 / Fold change vs veh, TMEM50B / RFU, TAOK1 / Fold change vs veh, TAOK1 / RFU, ACBD3 / Fold change vs veh, ACBD3 / RFU, TMA16 / Fold change vs veh, TMA16 / RFU, RWDD3 / Fold change vs veh, RWDD3 / RFU, BCAT1 / Fold change vs veh, BCAT1 / RFU, EDEM3 / Fold change vs veh, EDEM3 / RFU, TMEM33 / Fold change vs veh, TMEM33 / RFU, WDR75 / Fold change vs veh, WDR75 / RFU, AHCTF1 / Fold change vs veh, AHCTF1 / RFU, TFRC / Fold change vs veh, TFRC / RFU, ZDHHC17 / Fold change vs veh, ZDHHC17 / RFU, NOM1 / Fold change vs veh, NOM1 / RFU, ARL8B / Fold change vs veh, ARL8B / RFU, ZBTB11 / Fold change vs veh, ZBTB11 / RFU, TAMM41 / Fold change vs veh, TAMM41 / RFU, KIAA1704 /// LOC100996395 / Fold change vs veh, KIAA1704 /// LOC100996395 / RFU, ING1 / Fold change vs veh, ING1 / RFU, TRMT61B / Fold change vs veh, TRMT61B / RFU, FUBP3 / Fold change vs veh, FUBP3 / RFU, TP53 / Fold change vs veh, TP53 / RFU, TNKS2 / Fold change vs veh, TNKS2 / RFU, ZFP14 / Fold change vs veh, ZFP14 / RFU, ACTR2 / Fold change vs veh, ACTR2 / RFU, PPP3R1 / Fold change vs veh, PPP3R1 / RFU, PIK3R1 / Fold change vs veh, PIK3R1 / RFU, HNRNPA1 / Fold change vs veh, HNRNPA1 / RFU, RNF170 / Fold change vs veh, RNF170 / RFU, ZNF28 / Fold change vs veh, ZNF28 / RFU, RNGTT / Fold change vs veh, RNGTT / RFU, OGT / Fold change vs veh, OGT / RFU, BRD1 / Fold change vs veh, BRD1 / RFU, MARS / Fold change vs veh, MARS / RFU, ZNF655 / Fold change vs veh, ZNF655 / RFU, FAHD1 / Fold change vs veh, FAHD1 / RFU, BDP1 / Fold change vs veh, BDP1 / RFU, LRRCC1 / Fold change vs veh, LRRCC1 / RFU, ARID1A / Fold change vs veh, ARID1A / RFU, ZNF146 / Fold change vs veh, ZNF146 / RFU, ZNF330 / Fold change vs veh, ZNF330 / RFU, GPN3 / Fold change vs veh, GPN3 / RFU, C9orf123 / Fold change vs veh, C9orf123 / RFU, N4BP2L2 / Fold change vs veh, N4BP2L2 / RFU, ARFIP1 / Fold change vs veh, ARFIP1 / RFU, FAM179B / Fold change vs veh, FAM179B / RFU, BCL10 / Fold change vs veh, BCL10 / RFU, UHRF1BP1L / Fold change vs veh, UHRF1BP1L / RFU, BET1 / Fold change vs veh, BET1 / RFU, CNOT2 / Fold change vs veh, CNOT2 / RFU, ZNF268 / Fold change vs veh, ZNF268 / Fold change vs veh, ZNF507 / RFU, DGCR2 / Fold change vs veh, DGCR2 / RFU, WDSUB1 / Fold change vs veh, WDSUB1 / Fold change vs veh, HSP90B1 /// MIR3652 / RFU, ADSS / Fold change vs veh, ADSS / RFU, GK / Fold change vs veh, GK / RFU, ZNF148 / Fold change vs veh, ZNF148 / RFU, TAF9 / Fold change vs veh, TAF9 / RFU, SLC1A5 / Fold change vs veh, SLC1A5 / RFU, SLMO2 / Fold change vs veh, SLMO2 / RFU, ABCC4 / Fold change vs veh, ABCC4 / RFU, LOC101060439 /// RAP1B / Fold change vs veh, LOC101060439 /// RAP1B / RFU, RFX7 / Fold change vs veh, RFX7 / RFU, GTPBP10 / Fold change vs veh, GTPBP10 / RFU, CNEP1R1 / Fold change vs veh, CNEP1R1 / RFU, BIVM-ERCC5 /// ERCC5 / Fold change vs veh, BIVM-ERCC5 /// ERCC5 / RFU, ILF3 / Fold change vs veh, ILF3 / RFU 11762660_at / Fold change /veh 11762660_at / RFU VCAN (11757783_s_at) / Fold change /veh VCAN (11757783_s_at) / RFU DDX43 (11728927_at) / Fold change /veh DDX43 (11728927_at) / RFU KRT8 (11758188_x_at) / Fold change /veh KRT8 (11758188_x_at) / RFU NKD1 (11759106_at) / Fold change /veh NKD1 (11759106_at) / RFU SRD5A1 (11742802_a_at) / Fold change /veh SRD5A1 (11742802_a_at) / RFU TPSAB1 /// TPSB2 (11721975_s_at) / Fold change /veh TPSAB1 /// TPSB2 (11721975_s_at) / RFU GSTM3 (11746129_a_at) / Fold change /veh GSTM3 (11746129_a_at) / RFU IL23R (11737362_x_at) / Fold change /veh IL23R (11737362_x_at) / RFU TMEM51 (11727254_a_at) / Fold change /veh TMEM51 (11727254_a_at) / RFU PIWIL2 (11732686_x_at) / Fold change /veh PIWIL2 (11732686_x_at) / RFU ORM1 (11744905_x_at) / Fold change /veh ORM1 (11744905_x_at) / RFU CCDC152 (11743942_at) / Fold change /veh CCDC152 (11743942_at) / RFU ECM1 (11717891_a_at) / Fold change /veh ECM1 (11717891_a_at) / RFU IL23R (11748794_a_at) / Fold change /veh IL23R (11748794_a_at) / RFU TNFAIP8L3 (11732012_x_at) / Fold change /veh TNFAIP8L3 (11732012_x_at) / RFU MBOAT4 (11741988_at) / Fold change /veh MBOAT4 (11741988_at) / RFU 11764193_at / Fold change /veh 11764193_at / RFU TMEM53 (11763286_at) / Fold change /veh TMEM53 (11763286_at) / RFU MAGEB2 (11727129_at) / Fold change /veh MAGEB2 (11727129_at) / RFU TMEM200A (11744735_a_at) / Fold change /veh TMEM200A (11744735_a_at) / RFU CCDC152 (11751479_a_at) / Fold change /veh CCDC152 (11751479_a_at) / RFU FAM211A (11726209_a_at) / Fold change /veh FAM211A (11726209_a_at) / RFU RGS16 (11746705_a_at) / Fold change /veh RGS16 (11746705_a_at) / RFU VCAN (11755009_s_at) / Fold change /veh VCAN (11755009_s_at) / RFU RHOB (11743442_s_at) / Fold change /veh RHOB (11743442_s_at) / RFU RGS16 (11720943_a_at) / Fold change /veh RGS16 (11720943_a_at) / RFU RGS16 (11720944_at) / Fold change /veh RGS16 (11720944_at) / RFU, VPS4B / Fold change vs veh, VPS4B / RFU, CREB1 / Fold change vs veh, CREB1 / RFU, DNAJC13 / Fold change vs veh, DNAJC13 / RFU, GNAQ / Fold change vs veh, GNAQ / RFU, CDK5R1 / Fold change vs veh, CDK5R1 / RFU, ZRANB3 / Fold change vs veh, ZRANB3 / RFU, CUL4A / Fold change vs veh, CUL4A / RFU, CCNY / Fold change vs veh, CCNY / RFU, UFL1 / Fold change vs veh, UFL1 / RFU, COG3 / Fold change vs veh, COG3 / RFU, DIAPH2 / Fold change vs veh, DIAPH2 / RFU, SKA2 / Fold change vs veh, SKA2 / RFU, AFF3 / Fold change vs veh, AFF3 / RFU, LMF1 / Fold change vs veh, LMF1 / RFU, IPO11 / Fold change vs veh, IPO11 / RFU, DFFB / Fold change vs veh, DFFB / RFU, FOXP1 / Fold change vs veh, FOXP1 / RFU, CARD8 / Fold change vs veh, CARD8 / RFU, STRN3 / Fold change vs veh, STRN3 / RFU, ADK / Fold change vs veh, ADK / RFU, RASSF2 / Fold change vs veh, RASSF2 / RFU, WIPF1 / Fold change vs veh, WIPF1 / RFU, LARP1B / Fold change vs veh, LARP1B / RFU, RASA1 / Fold change vs veh, RASA1 / RFU, RB1 / Fold change vs veh, RB1 / RFU, PPFIA1 / Fold change vs veh, PPFIA1 / RFU, MAT2A / Fold change vs veh, MAT2A / RFU, CCT5 / Fold change vs veh, CCT5 / RFU, WDR92 / Fold change vs veh, WDR92 / RFU, CUX1 / Fold change vs veh, CUX1 / RFU, TTC7A / Fold change vs veh, TTC7A / RFU, TMEM135 / Fold change vs veh, TMEM135 / RFU, DEPTOR / Fold change vs veh, DEPTOR / RFU, CPM / Fold change vs veh, CPM / RFU, DNAJB6 / Fold change vs veh, DNAJB6 / RFU, CACNA2D3 / Fold change vs veh, CACNA2D3 / RFU, DTX4 / Fold change vs veh, DTX4 / RFU, TFCP2 / Fold change vs veh, TFCP2 / RFU, GMCL1 /// GMCL1P1 / Fold change vs veh, GMCL1 /// GMCL1P1 / RFU, AEBP2 / Fold change vs veh, AEBP2 / RFU, SNHG1 /// SNORD22 /// SNORD25 /// SNORD26 /// SNORD27 /// SNORD28 /// SNORD29 /// SNORD31 / Fold change vs veh, SNHG1 /// SNORD22 /// SNORD25 /// SNORD26 /// SNORD27 /// SNORD28 /// SNORD29 /// SNORD31 / Fold change (Aza/veh), C12orf56 (ProbeSet 11735607_a_at) / Fold change (ACY-1035/veh), C12orf56 (ProbeSet 11735607_a_at) / Fold change (Aza/veh), FGFR1OP (ProbeSet 11751329_s_at) / Fold change (ACY-1035/veh), FGFR1OP (ProbeSet 11751329_s_at) / Fold change (Aza/veh), VPS36 (ProbeSet 11739960_a_at) / Fold change (ACY-1035/veh), VPS36 (ProbeSet 11739960_a_at) / RFU SYPL1 (11715823_x_at) / Fold change /veh SYPL1 (11715823_x_at) / RFU IGFBP7 (11715501_s_at) / Fold change /veh IGFBP7 (11715501_s_at) / RFU REEP3 (11722064_at) / Fold change /veh REEP3 (11722064_at) / RFU IGLL1 (11728026_x_at) / Fold change /veh IGLL1 (11728026_x_at): dose or concentration left out as unconfirmed
Conditions: ProbeSet 11743362_s_at; LIST B

SMILES: Nc1ccc(-c2cccs2)cc1NC(=O)c1ccc2c(c1)cc(C1CC1)n2CCN1CCOCC1 [ACY-1035]
- Fold change vs veh, ADSS: 0.95
